{"source": "paper PMC4373826", "about": "“Antiviral Effect of Methylated Flavonol Isorhamnetin against Influenza” (PLoS ONE, 2015)", "key": {"[1]": {"system": "LC3B", "experiment": "Western blot for LC3B lipidation", "format": "cell-based, canine", "details": "50 μM; post-treatment", "source_text": "Autophagy can also be measured by changes in LC3B localization, because the degree of conversion of LC3B-I to LC3B-II provides an indicator of autophagic activity. Western blotting detected LC3B as 2 bands: cytosolic LC3B-I and membrane-bound LC3B-II (which is bound to the autophagosome membrane). The molecular weight of LC3B-II is greater than that of LC3B-I. However, due to its hydrophobicity, LC3B-II migrates faster in SDS-PAGE, and therefore, has a lower apparent molecular weight.\nTo prepare whole-cell extracts, cells were washed 3 times using cold PBS, scraped from the dishes, and suspended in protein extraction buffer containing 1% Triton X-100 (Amresco), 100 mM Tris-HCl, 10 mM NaCl, 10% glycerol, 1 mM sodium orthovanadate (Sigma-Aldrich), 50 mM sodium fluoride (Sigma-Aldrich), and 1 mM phenylmethylsulfonyl fluoride (PMSF; Sigma-Aldrich). After incubation on ice for 30 min, lysates were centrifuged and proteins in the supernatants were quantified using the Bradford Protein Assay Reagent (Bio-Rad). Protein samples were separated via 10% SDS-PAGE and transferred to nitrocellulose membranes ([…]; Protran, Newton, NJ, USA). The membranes were blocked using 5% nonfat dry milk and 0.1% Tween-20 in Tris-buffered saline and probed with the primary antibody. […]"}, "[2]": {"target": "T1, influenza virus neuraminidase (Influenza A virus, UniProt P03468)", "T1 construct": "mixed with an equal volume of the virus solution (50 μL); host or cells: whole virus suspension", "T1 sequence (P03468 whole entry)": "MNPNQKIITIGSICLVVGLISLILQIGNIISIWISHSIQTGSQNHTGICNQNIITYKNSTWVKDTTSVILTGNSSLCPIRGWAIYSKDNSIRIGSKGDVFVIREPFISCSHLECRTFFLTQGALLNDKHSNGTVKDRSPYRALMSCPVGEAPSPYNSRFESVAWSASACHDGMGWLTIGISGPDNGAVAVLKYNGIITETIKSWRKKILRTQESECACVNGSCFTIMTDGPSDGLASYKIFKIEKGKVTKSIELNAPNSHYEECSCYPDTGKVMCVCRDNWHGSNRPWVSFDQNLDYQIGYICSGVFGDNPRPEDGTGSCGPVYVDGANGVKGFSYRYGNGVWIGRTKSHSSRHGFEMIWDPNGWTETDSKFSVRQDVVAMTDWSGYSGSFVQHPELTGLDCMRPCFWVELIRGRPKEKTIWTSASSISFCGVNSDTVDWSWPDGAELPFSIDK", "experiment": "Neuraminidase inhibition (NAI) assay", "format": "biochemical", "details": "50 μM", "protocol": "The neuraminidase inhibition assay was carried out to examine the inhibitory effect of the tested flavonoids on influenza virus neuraminidase activity as described previously. The flavonoid compounds were used at concentrations of 10 μM, 50 μM, and 100 μM. Tamiflu, a specific NA blocker, was used as a control with a dose of 1 μM. This assay was conducted in 96-well plates; each flavonoid concentration (50 μL) was mixed with an equal volume of the virus solution (50 μL) using reaction buffer (sodium acetate buffer 150 mM, pH 7, and 1 mM calcium chloride) and incubated for 30 minutes at 37°C. For initiation of the enzymatic reaction, we added 100 μL of the substrate solution (4-MU-NANA; (2′-(4-methylumbelliferyl)-α-d-N-acetylneuraminic acid, sodium salt hydrate; Sigma-Aldrich) that dissolved in the enzyme buffer [33 mM 2-(N-morpholino) ethanesulfonic acid (MES), pH 6.5, and 4 mM CaCl2] to the final concentration of 100 μM to the flavonoids and the virus mixture (100 μL). This reaction mixture was protected from light and incubated at 37°C for 2 hr under shaking condition. For stopping of the reaction, we added the stop solution (150 μl of 0.014 N NaOH in 83% ethanol) to each well. The fluorescence of the released 4-methylumbelliferone fluorescence was measured using a fluorescence plate reader (Molecular Devices, Sunnyvale, CA, USA) (excitation 365 nm, emission 460 nm). […]"}, "[3]": {"system": "ERK", "experiment": "Western blot for ERK phosphorylation", "format": "cell-based, canine", "details": "50 μM", "protocol": "To prepare whole-cell extracts, cells were washed 3 times using cold PBS, scraped from the dishes, and suspended in protein extraction buffer containing 1% Triton X-100 (Amresco), 100 mM Tris-HCl, 10 mM NaCl, 10% glycerol, 1 mM sodium orthovanadate (Sigma-Aldrich), 50 mM sodium fluoride (Sigma-Aldrich), and 1 mM phenylmethylsulfonyl fluoride (PMSF; Sigma-Aldrich). After incubation on ice for 30 min, lysates were centrifuged and proteins in the supernatants were quantified using the Bradford Protein Assay Reagent (Bio-Rad). Protein samples were separated via 10% SDS-PAGE and transferred to nitrocellulose membranes ([…]; Protran, Newton, NJ, USA). The membranes were blocked using 5% nonfat dry milk and 0.1% Tween-20 in Tris-buffered saline and probed with the primary antibody. Western blotting was performed using antibodies against t-ERK, p-ERK, actin (Santa Cruz Biotechnology, Dallas, TX, USA), and LC3B (Novus Biologicals, San Diego, CA, USA), as well as anti-mouse, anti-rabbit, and anti-goat IgG-peroxidase-conjugated secondary antibodies (Santa Cruz Biotechnology) and an enhanced chemiluminescence (ECL) kit (Amersham Biosciences, Piscataway, NJ, USA)."}, "[4]": {"system": "virus-induced ROS generation in MDCK cells", "experiment": "Virus-induced ROS generation assay (H2DCFDA)", "format": "cell-based, canine", "details": "50 μM", "protocol": "For the ROS generation assay, MDCK cells were seeded onto 24-well plates and incubated overnight for 80% confluence. The MDCK cells were infected with the virus as described previously and then treated with the flavonoids (post-treatment method). Intracellular ROS levels were detected using a cell-permeable oxidant-sensitive fluorescent probe, 2′, 7′-dichiorofluorescin diacetate (H2DCFDA, Molecular Probes, Eugene, OR, USA). The cells were incubated with 10 μM of H2DCFDA for 30 min at 37°C in the dark. After incubation, the cells were washed twice and covered with PBS. The average ROS generation was determined by fluorescent images that were captured using Nikon Eclipse TE2000-U fluorescence inverted microscope (Nikon, Tokyo, Japan). In this experiment, we used N-acetyl-L-cysteine (NAC; Sigma-Aldrich), a ROS scavenger reagent, and at a concentration of 15 mM as a positive control treatment."}, "[5]": {"system": "influenza A/PR/8/34 (H1N1)", "experiment": "In ovo virus titer in embryonated chicken egg", "format": "in vivo", "protocol": "Virus was serially diluted (10-fold serial dilution) and inoculated into the eggs, and then the virus titers were calculated as log10EID50/ml. At the cellular level, virus titration was determined via the hemagglutination assay (as described in detail in the WHO surveillance guidelines) and by the cytopathic effect (CPE) of MDCK cells induced by viral infection, and expressed as 50% tissue culture infectious doses (TCID50), which were calculated based on the method of Reed and Muench.In mice, 50% mouse lethal dose (MLD50) was defined as 50% egg infective dose (EID50) that led to 50% mice mortality that calculated according to Reed and Muench. The flavonoids quercetin, kaempferol, isorhamnetin, diosmetin, and eriodictyol were purchased from the Indofine Chemical Company, Hillsborough, NJ, USA. The flavonoids and PD-98059 (MEK inhibitor, Calbiochem, La Jolla, CA, USA) were dissolved in dimethylsulfoxide (DMSO, Sigma-Aldrich).The final concentration of DMSO in the culture media is 0.2% (v/v). Tamiflu (Oseltamivir, 75 mg) was purchased from Roche-Korea (Seoul, South Korea) Co. Ltd."}, "[6]": {"system": "influenza viral genes HA and NA", "experiment": "RT-PCR of viral HA and NA genes", "format": "cell-based, influenza A virus"}, "[7]": {"system": "influenza A/PR/8/34 (H1N1)", "experiment": "in vitro", "details": "dog, SI (selective index, CC50/EC50)"}}, "note": "Marks after values point to notes of the source that are not given here."}
{"smiles": "COc1cc(-c2oc3cc(O)cc(O)c3c(=O)c2O)ccc1O", "note": "[Isorhamnetin, isorhamnetin]", "values": [{"measurement": "lipidation of LC3B-II", "setting": "[1]", "value": "significantly suppressed"}, {"measurement": "NA activity", "setting": "[2]", "value": "significantly inhibited"}, {"measurement": "virus-induced ERK phosphorylation", "setting": "[3]", "value": "significantly suppressed"}, {"measurement": "virus-induced ROS generation", "setting": "[4]", "value": "significant reduction"}, {"measurement": "Virus titer (Embryonated chicken egg)", "setting": "[5]", "value": "10^8 ^* EID50/ml"}, {"measurement": "expression of HA and NA", "setting": "[6]", "value": "markedly decreased"}, {"measurement": "selectivity ratio", "setting": "[7]; Co-treatment (2 hr)", "value": "> 9"}, {"measurement": "selectivity ratio", "setting": "[7]; Post-treatment", "value": "> 12"}]}
